Counter-ions that a name gives are not always drawn. Like-named read-outs stand apart in the source and are kept apart here.
What was measured:
[1] = target: T1, tachykinin NK1 receptor (Homo sapiens, UniProt P25103); experiment: NK1 binding in human IM9 lymphoma cells, displacement of [125I]Bolton Hunter Substance-P
T1 construct: tachykinin NK1 receptor sites in human IM9 lymphoma cells; endogenous in cells; host or cells: human IM9 lymphoma cells

[2] = target: T2, NK1 receptor (Cavia porcellus, UniProt P30547); experiment: Inhibition of SPOMe-induced plasma protein extravasation in the guinea pig bladder; format: in vivo
T2 construct: Guinea Pig Ileum; from tissue; host or cells: guinea pig ileum
T2 sequence (P30547 whole entry): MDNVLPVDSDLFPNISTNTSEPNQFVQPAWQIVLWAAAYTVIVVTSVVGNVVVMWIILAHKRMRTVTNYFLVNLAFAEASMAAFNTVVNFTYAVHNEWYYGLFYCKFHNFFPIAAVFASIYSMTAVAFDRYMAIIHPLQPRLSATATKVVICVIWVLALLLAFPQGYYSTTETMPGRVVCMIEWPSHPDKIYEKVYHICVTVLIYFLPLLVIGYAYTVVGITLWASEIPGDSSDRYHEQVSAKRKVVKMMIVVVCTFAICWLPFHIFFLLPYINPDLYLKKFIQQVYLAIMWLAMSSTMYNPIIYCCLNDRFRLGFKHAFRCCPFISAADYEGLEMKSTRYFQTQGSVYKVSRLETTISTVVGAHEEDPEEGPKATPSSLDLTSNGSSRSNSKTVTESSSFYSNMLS
From the text: They antagonize the ability of a NK1 receptor selective agonist (SPOMe) to induce plasma protein extravasation in the guinea pig bladder. The protocol is similar to that described by Eglezos, et al., Eur. J. Pharmacol., 209: 277-279 (1991).

[3] = target: T2, NK1 receptor; experiment: NK1 antagonist activity in an in vitro NK1 preparation (guinea pig ileum), antagonism of substance-P methylester; format: cell-based; conditions: vs substance-P methylester
From the text: Therefore, it is expected to be useful in the therapeutic disorders when the attenuation of the NK1 receptor response is the appropriate form of intervention.

T1 sequence (P25103 whole entry): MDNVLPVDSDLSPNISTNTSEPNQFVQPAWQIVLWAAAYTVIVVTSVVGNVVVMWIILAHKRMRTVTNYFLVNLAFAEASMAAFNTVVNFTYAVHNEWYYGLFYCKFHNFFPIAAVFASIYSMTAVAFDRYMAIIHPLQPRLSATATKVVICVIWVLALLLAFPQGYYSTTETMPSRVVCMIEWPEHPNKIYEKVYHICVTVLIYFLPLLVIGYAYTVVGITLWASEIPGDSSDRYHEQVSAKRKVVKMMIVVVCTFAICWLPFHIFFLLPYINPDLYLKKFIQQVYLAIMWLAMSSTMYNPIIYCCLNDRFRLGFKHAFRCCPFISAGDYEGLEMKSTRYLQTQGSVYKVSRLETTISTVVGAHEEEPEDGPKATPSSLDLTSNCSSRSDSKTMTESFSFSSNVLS

Structure (SMILES)	IC50 [1] [nM]	ED50 ([2]; IV, read-out: ID50 (IV)) [mg/kg]	ED50 ([2]; PO, read-out: ID50 (PO)) [mg/kg]	Kb [3] [nM]
C[C@](Cc1c[nH]c2ccccc12)(NC(=O)OCc1ccccc1)C(=O)N[C@@H](CO)c1ccccc1 [Example 15, Carbamic acid, [2-[(2-hydroxy-1-phenylethyl)amino]-1-(1H-indol-3-ylmethyl)-1-methyl-2-oxoethyl]-, phenylmethyl ester, [R-(R* R*)]-]	58			
C[C@](Cc1c[nH]c2ccccc12)(NC(=O)OCc1ccccc1F)C(=O)N[C@@H](CO)c1ccccc1 [Example 16, Carbamic acid, [2-[(2-hydroxy-1-phenylethyl)amino]-1-(1H-indol-3-ylmethyl)-1-methyl-2-oxoethyl]-, (2-fluorophenyl)methyl ester, [R-(R*,R*)]-]	3.3			10.6
C[C@](Cc1c[nH]c2ccccc12)(NC(=O)OCc1cc(F)ccc1F)C(=O)N[C@@H](CO)c1ccccc1 [Example 17, Carbamic acid, [2-[(2-hydroxy-1-phenylethyl)amino]-1-(1H-indol-3-ylmethyl)-1-methyl-2-oxoethyl]-, (2,5-difluorophenyl)methyl ester, [R-(R*,R*)]]	3.9			9.3
C[C@](Cc1c[nH]c2ccccc12)(NC(=O)OCc1cc2ccccc2s1)C(=O)N[C@@H](CO)c1ccccc1 [Example 18, Carbamic acid, [2-[(2-hydroxy-1-phenylethyl)amino]-1-(1H-indol-3-ylmethyl)-1-methyl-2-oxoethyl]-, benzo[b]thien-2-ylmethyl ester, [R-(R*,R*)]-]	9			6.3

Second part, the compound after the results:

IC50 [1] [nM]	ED50 ([2]; IV, read-out: ID50 (IV)) [mg/kg]	ED50 ([2]; PO, read-out: ID50 (PO)) [mg/kg]	Kb [3] [nM]	Structure (SMILES)
1.2	0.16	30	1.3	C[C@](Cc1c[nH]c2ccccc12)(NC(=O)OCc1cc2ccccc2o1)C(=O)N[C@@H](CO)c1ccccc1 [Example 6, Carbamic acid, [2-[(2-hydroxy-1-phenylethyl)amino]-1-(1H-indol-3-ylmethyl)-1-methyl-2-oxoethyl]-, 2-benzofuranylmethyl ester, [R-(R*,R*)]-]
13			16	C[C@](Cc1c[nH]c2ccccc12)(NC(=O)OCc1cc2ccccc2o1)C(=O)N[C@@H](CN)c1ccccc1 [Example 8, Carbamic acid, [2-[(2-amino-1-phenylethyl)amino]-1-(1H-indol-3-ylmethyl)-1-methyl-2-oxoethyl]-, 2-benzofuranylmethyl ester [R-(R*,R*)]-]
12	0.16	4.4	6.2	CN(C)CC(=O)OC[C@H](NC(=O)[C@@](C)(Cc1c[nH]c2ccccc12)NC(=O)OCc1cc2ccccc2o1)c1ccccc1 [Example 9, Glycine, N,N-dimethyl-, 2-[[2-[[(2-benzofuranylmethoxy)carbonyl]amino]-3-(1H-indol-3-yl)-2-methyl-1-oxopropyl]amino]-2-phenylethyl ester, monohydrochloride, [R-(R*,R*)]-]
84				CN(C)CC(=O)NC[C@H](NC(=O)[C@@](C)(Cc1c[nH]c2ccccc12)NC(=O)OCc1cc2ccccc2o1)c1ccccc1 [Example 10, Carbamic acid, [2-[[(2-[[(dimethylamino)acetyl]amino]-1-phenylethyl]amino]-1-(1H-indol-3-ylmethyl)-1-methyl-2-oxoethyl]-, 2-benzofuranylmethyl ester, monohydrochloride, [R-(R*,R*)]-]
16			22	CC(C)C[C@H](N)C(=O)OC[C@H](NC(=O)[C@@](C)(Cc1c[nH]c2ccccc12)NC(=O)OCc1cc2ccccc2o1)c1ccccc1 [Example 12, L-Leucine, 2-[[2-[[(2-benzofuranylmethoxy)carbonyl]amino]-3-(1H-indol-3-yl)-2-methyl-1-oxopropyl]amino]-2-phenylethyl ester, [R-(R*,R*)]-]

Reference: US5610176A, “Tachykinin (NK1) receptor antagonists” (Warner-Lambert Company, priority 1995, dated 1997)
